Test results published in patent US20150209335A1, “METHODS AND SMALL MOLECULE THERAPEUTICS COMPRISING FUSED ELPS” (UNIVERSITY OF SOUTHERN CALIFORNIA, priority 2012, published 2015).

Legend:
[1] = toxicity and body weight in the MDA-MB-468 xenograft mouse study; details: after first 2 doses, dosed 3 times a week
Excerpt: 3 times a week. […] Therefore, the dose was reduced to only once a week.

[2] = tested on: interferon gamma (IFN gamma); test: interferon gamma expression in NOD mouse lacrimal gland, real time RT-PCR; assay type: in vivo; details: NOD mice, 7-day treatment period
Excerpt: Quantitation was achieved using real time RT-PCR. Expression of IFN-gamma was quantified after a 7-day treatment period with PBS, Free Rapa, and FSI Rapa.

[3] = tested on: MDA-MB-468 rapamycin sensitive breast cancer cell line; test: MTS cell viability assay, MDA-MB-468; assay type: cell-based; details: MDA-MB-468 cell assay
Procedure: Each mouse was injected with 3×10^6 MDA-MB-468 cells s.c. in mammary fat pads. […] 3 times a week. […] Therefore, the dose was reduced to only once a week.

[4] = tested on: lymphocytic infiltration of the lacrimal gland; test: lymphocytic infiltration of the lacrimal gland in male NOD mice (autoimmune dacryoadenitis); assay type: in vivo, mouse; details: 12 week old male NOD mice, tail vein, one week of treatment
Excerpt: The bottom panel is image analysis that was used to quantify % of tissue section containing lymphocyte foci. *p=0.003, **P=5×10·5, ***P=0.01, ****P=0.0009.

[5] = in vivo; cited from earlier work
[6] = Rapa encapsulation and release from ELP nanoparticles, dialysis under sink conditions, RP-HPLC; assay type: physicochemical; details: preliminary experiments
Procedure: Dialysis under sink conditions was used track the loss of Rapa from the nanoparticles. Mean±SD (n=3).
A two phase method was developed to encapsulate Rapa into the ELP nanoparticles. An aqueous phase PBS containing S48I48 or FKBP-S48I48 was mixed with an organic phase hexane/EtOH containing Rapa in a small glass vial. The vial was kept stirred and heated up to the CMT of S48I48 or FKBP-S48I48. A nitrogen flow was applied to facilitate the evaporation of the hexane/EtOH phase. A 13.2K 10 min centrifugation was performed to remove the insoluble Rapa after the organic phase evaporated out. 100 μL of the sample was filtered and injected into a C-18 reverse phase HPLC column to analyze the amount of the Rapa that was initially encapsulated. Rapa releasing experiment was performed under a sink condition of H2O dialysis. Samples were collected in the dialysis cassette at time points of 0 h, 1 h, 2 h, 4 h, 6 h, 9 h, 19.5 h, 27 h, 31 h and 48 h. RP-HPLC was used to determine the amount of Rapa that was retained inside the ELP nanoparticle core.

[7] = dynamic light scattering (DLS) size of ELP nanoparticles; assay type: physicochemical; details: concentration of 25 uM
Excerpt: ELP diblock copolymers with hydrophobic and hydrophilic guest residues at opposite ends of the polymer (e.g. (Val-Pro-Gly-Ile-Gly) 48(Val-Pro-Gly-Ser-Gly)48 (SEQ ID NO: 12) called I48S48) can form nanoparticles. A class of ELP block copolymers with hydrophobic block:hydrophilic block=1:1 have been confirmed to form different sizes of stable nanoparticles. For instances, (Val-Pro-Gly-Ile-Gly)48(Val-Pro-Gly-Ser-Gly)48 (SEQ ID NO: 12) short name: 148S48; (Val-Pro-Gly- Phe-Gly)24(Val-Pro-Gly-Ser-Gly)24 (SEQ ID NO: 13)) short name F24S24. Dynamic light scattering (DLS) can be applied to measure the size of ELP nanoparticles. At concentration of 25 uM, ELP block copolymer 148S48 forms 24 nm in radius nanoparticles; however, F24S24 forms nanoparticles with 15 nm hydrodynamic radius. In order to actually observe the morphology of ELP nanoparticles, transmission electron microscopy (TEM) and cryo-transmission electron microscopy (Cryo-TEM) can be applied. In TEM, 1% of Uranyl acetate solution is used to negatively stain ELP nanoparticles. Therefore, ELP nanoparticles are expected to be observed as hollow spheres. Different from TEM in which ELP samples are loaded on a grid and dry at room temperature. Cryo-TEM studies ELP samples at cryogenic temperatures, generally liquid nitrogen temperatures. […]

Molecule	body weight lost [1]	IFN gamma expression in lacrimal gland [2]	rapamycin dose (concentration) that could be reached [3]	lymphocytic infiltration (lymphocyte foci) of lacrimal gland [4]	bioavailability of the plain drug [5]	rapamycin encapsulation into plain ELP nanoparticles [6]	nanoparticle hydrodynamic radius [7]
CO[C@H]1C[C@@H]2CC[C@@H](C)[C@@](O)(O2)C(=O)C(=O)N2CCCC[C@H]2C(=O)O[C@H]([C@H](C)C[C@@H]2CC[C@@H](O)[C@H](OC)C2)CC(=O)[C@H](C)/C=C(\C)[C@@H](O)[C@@H](OC)C(=O)[C@H](C)C[C@H](C)/C=C/C=C/C=C/1C [rapamycin, (3S,6R,7E,9R,10R,12R,14S,15E,17E,19E,21S,23S,26R,27R,34aS)-9,10,12,13,14,21,22,23,24,25,26,27,32,33,34,34a-hexadecahydro-9,27-dihydroxy-3-[(1R)-2-[(1S,3R,4R)-4-hydroxy-3-methoxycyclohexyl]-1-methylethyl]-10,21-dimethoxy-6,8,12,14,20,26-hexamethyl-23,27-epoxy-3H-pyrido[2,1-c][1,4]-oxaazacyclohentriacontine-1,5,11,28,29 (4H,6H,31H)-pentone]	about 10%	sizeable reduction	could not reach such a high rapamycin concentration	less lymphocyte invasion	less than 20%		
I48S48: ELP diblock copolymer (Val-Pro-Gly-Ile-Gly)48(Val-Pro-Gly-Ser-Gly)48 (SEQ ID NO: 12), forms nanoparticles (protein) VPGIGVPGIGVPGIGVPGIGVPGIGVPGIGVPGIGVPGIGVPGIGVPGIGVPGIGVPGIGVPGIGVPGIGVPGIGVPGIGVPGIGVPGIGVPGIGVPGIGVPGIGVPGIGVPGIGVPGIGVPGIGVPGIGVPGIGVPGIGVPGIGVPGIGVPGIGVPGIGVPGIGVPGIGVPGIGVPGIGVPGIGVPGIGVPGIGVPGIGVPGIGVPGIGVPGIGVPGIGVPGIGVPGIGVPGIGVPGIGVPGSGVPGSGVPGSGVPGSGVPGSGVPGSGVPGSGVPGSGVPGSGVPGSGVPGSGVPGSGVPGSGVPGSGVPGSGVPGSGVPGSGVPGSGVPGSGVPGSGVPGSGVPGSGVPGSGVPGSGVPGSGVPGSGVPGSGVPGSGVPGSGVPGSGVPGSGVPGSGVPGSGVPGSGVPGSGVPGSGVPGSGVPGSGVPGSGVPGSGVPGSGVPGSGVPGSGVPGSGVPGSGVPGSGVPGSGVPGSG						efficiently encapsulated	24 nm
F24S24: ELP diblock copolymer (Val-Pro-Gly-Phe-Gly)24(Val-Pro-Gly-Ser-Gly)24 (SEQ ID NO: 13), forms nanoparticles (protein) VPGFGVPGFGVPGFGVPGFGVPGFGVPGFGVPGFGVPGFGVPGFGVPGFGVPGFGVPGFGVPGFGVPGFGVPGFGVPGFGVPGFGVPGFGVPGFGVPGFGVPGFGVPGFGVPGFGVPGFGVPGSGVPGSGVPGSGVPGSGVPGSGVPGSGVPGSGVPGSGVPGSGVPGSGVPGSGVPGSGVPGSGVPGSGVPGSGVPGSGVPGSGVPGSGVPGSGVPGSGVPGSGVPGSGVPGSGVPGSG						efficiently encapsulated	15 nm
